# Patent US20250084078A1, “FUSED RING-SUBSTITUTED SIX-MEMBERED HETEROCYCLIC COMPOUND, AND PREPARATION METHOD THEREFOR AND USE THEREOF” (GENFLEFT THERAPEUTICS (SHANGHAI) INC., priority 2022, published 2025)
# Target: HPK1 (Homo sapiens, UniProt Q92918)
# Assay: SLP76 phosphorylation assay (intracellular HPK1 inhibitory activity, p-SLP76 S376 ELISA in Jurkat cells)
# Settings: p-SLP76 IC50, Jurkat, Clone E6-1 cells; 1 h compound pre-incubation; anti-CD3 beads stimulation 20 min; Phospho-SLP-76 (Ser376) ELISA
# Experimental: SLP76 Phosphorylation Assay
# Intracellular HPK1 inhibitory activity was tested by the detection of SLP76 phosphorylation at S376.
# Preparation of 1000× drug stock plate: a 1000× compound stock plate was prepared. […] The compound stock plate was sealed with a sealing film and stored in a −20° C. refrigerator for later use.
# Preparation of Beads wash buffer: 0.1 mL FBS and 0.4 mL 0.5 M EDTA (with a final concentration of 2 mM) were added to 100 mL PBS and stored in a 4° C. refrigerator for later use.
# 100× Protease Inhibitor Cocktail in 1/20 total volume was added and stored on wet ice for later use. The buffer was ready to use.
# Cell inoculation and dosing: the 1000× drug stock plate was taken and melted at room temperature in the dark. […] Jurkat cells in the logarithmic growth phase were selected and collected. […] The cells were inoculated into a 96-well plate (the volume was 90 μL per well), and a blank control well (without cells inoculation, and in which 110 μL of medium was added) was set. 10 μL of a drug-containing culture medium (10×) was transferred from the 10× drug intermediate plate into the 96-well cell plate (with a final concentration of 0.1% DMSO), and set a DMSO control group (in which 0.1% DMSO was added to the treated cells), a stimulated control group (in which 10 μL of culture medium was added to treat cells) and an unstimulated group (in which 10 μL of culture medium was added to treat cells). The wells were duplicated, gently patted, mixed, and then placed into a 5% CO2 incubator at 37° C. for 1 h.
# Anti-CD3 beads stimulation: Dynabeads anti-human CD3 was taken, shaken, and mixed for 60 s. The required volume of beads was pipetted, and an equal volume or at least 1 mL of washing solution was added to wash once. Fresh complete medium was then added to resuspend and adjust the density of the beads to 4×10^7/mL, and the beads were placed on ice for later use. At the end of drug pre-incubation, the cell culture plate was taken out. 10 μL Dynabeads anti-human CD3 was added to each well to treat the cells, and 10 μL the culture medium was added to the unstimulated group. The cell culture plate was shaken to mix well at 2500 rpm for 10 s, and then placed into a 5% CO2 incubator at 37° C. and continued to culture for 20 min.
# Detection of p-SLP76 protein level: PathScan Phospho-SLP-76 (Ser376) Sandwich ELISA Kit was applied to detect p-SLP76 protein level. At the end of the Anti-CD3 beads stimulation, the cell culture plate was removed from the incubator. […] After lysis, the cell culture plate was centrifuged at 4° C., 400×g for 5 min. 25 μL of sample and 75 μL of sample diluent were added to each well, and the plate was placed in a 5% CO2 incubator at 37° C. for 2 h. The subsequent detection steps were carried out following the kit instructions, and the absorbance (OD value) of each well was read at 450 nm by a microplate reader.
# HPK1, sequence (Q92918 whole entry): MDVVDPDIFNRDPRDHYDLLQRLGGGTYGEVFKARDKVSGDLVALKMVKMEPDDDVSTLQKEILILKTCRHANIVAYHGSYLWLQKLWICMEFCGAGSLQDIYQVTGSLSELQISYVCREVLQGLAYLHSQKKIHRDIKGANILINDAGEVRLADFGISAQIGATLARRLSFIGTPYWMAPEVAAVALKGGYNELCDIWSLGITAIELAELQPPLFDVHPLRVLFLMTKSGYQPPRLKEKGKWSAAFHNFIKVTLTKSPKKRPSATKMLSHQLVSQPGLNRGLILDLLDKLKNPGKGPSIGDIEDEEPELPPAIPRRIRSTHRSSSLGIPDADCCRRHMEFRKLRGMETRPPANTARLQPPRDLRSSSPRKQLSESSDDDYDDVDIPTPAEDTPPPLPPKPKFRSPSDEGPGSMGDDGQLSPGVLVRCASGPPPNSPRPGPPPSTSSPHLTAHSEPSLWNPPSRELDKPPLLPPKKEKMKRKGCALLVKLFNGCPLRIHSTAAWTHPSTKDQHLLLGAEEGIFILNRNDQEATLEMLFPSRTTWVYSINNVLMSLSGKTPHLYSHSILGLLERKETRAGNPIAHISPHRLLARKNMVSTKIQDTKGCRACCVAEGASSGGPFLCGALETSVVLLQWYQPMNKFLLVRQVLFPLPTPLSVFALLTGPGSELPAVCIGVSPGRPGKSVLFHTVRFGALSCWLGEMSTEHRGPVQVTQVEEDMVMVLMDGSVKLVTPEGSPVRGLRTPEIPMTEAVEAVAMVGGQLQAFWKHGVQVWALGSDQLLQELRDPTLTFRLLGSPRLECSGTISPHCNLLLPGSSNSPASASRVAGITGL
row,Compound,IC50
1,"Cc1c[nH]c2ncc(-c3cc4c(c(C5COCCN5)c3)CN(C(=O)[C@](C)(O)C(F)(F)F)CC4)cc12 (single isomer, unassigned) [Compound Z309-1]",82.6 nM
2,"O=C(N1CCc2cc(-c3cnc4[nH]cc(Cl)c4n3)cc([C@@H]3COCCN3)c2C1)N1C[C@H]2CC[C@@H]1CO2 (single isomer, unassigned) [Compound Z591]",275 nM
3,"Cc1c[nH]c2ncc(-c3cc4c(c([C@@H]5COCCN5)c3)CN(C(=O)N3C[C@H]5CC[C@@H]3CO5)CC4)cc12 (single isomer, unassigned) [Compound Z643]",294 nM
4,"COC1(C(=O)N2CCc3cc(-c4cnc5[nH]cc(C)c5c4)cc([C@@H]4COCCN4)c3C2)CC1 [Compound Z373, (R)-(1-methoxycyclopropyl)(6-(3-methyl-1H-pyrrolo[2,3-b]pyridin-5-yl)-8-(morpholin-3-yl)-3,4-dihydroisoquinolin-2(1H)-yl)methanone]",159 nM
5,"O=C(N1CCc2cc(-c3cnc4[nH]cc(Cl)c4c3)cc([C@@H]3COCCN3)c2C1)C1(O)CC1 [Compound Z435, (R)-(6-(3-chloro-1H-pyrrolo[2,3-b]pyridin-5-yl)-8-(morpholin-3-yl)-3,4-dihydroisoquinolin-2(1H)-yl)(1-hydroxycyclopropyl)methanone]",258 nM
6,"Cc1c[nH]c2ncc(-c3cc4c(c([C@@H]5COCCN5)c3)CN(C(=O)N3CCO[C@@H](C)C3)CC4)cc12 [Compound Z452, (6-(3-methyl-1H-pyrrolo[2,3-b]pyridin-5-yl)-8-((R)-morpholin-3-yl)-3,4-dihydroisoquinolin-2(1H)-yl)((S)-2-methylmorpholine)methanone]",238 nM
7,"Cc1c[nH]c2ncc(-c3cc4c(c([C@@H]5COCCN5)c3)CN(C(=O)N3CCOC(C)(C)C3)CC4)cc12 [Compound Z453, (R)-(2,2-dimethylmorpholine)(6-(3-methyl-1H-pyrrolo[2,3-b]pyridin-5-yl)-8-(morpholin-3-yl)-3,4-dihydroisoquinolin-2(1H)-yl)methanone]",148 nM
8,"Cc1c[nH]c2ncc(-c3cc4c(c([C@@H]5COCCN5)c3)CN(C3CCOCC3)CC4)cc12 [Compound Z454, (R)-3-(6-(3-methyl-1H-pyrrolo[2,3-b]pyridin-5-yl)-2-(tetrahydro-2H-pyran-4-yl)-1,2,3,4-tetrahydroisoquinolin-8-yl)morpholine]",655 nM
9,"Cc1n[nH]c2ncc(-c3cc4c(c([C@@H]5COCCN5)c3)CN(C(=O)C(C)(C)O)CC4)cc12 [Compound Z455, (R)-2-hydroxy-2-methyl-1-(6-(3-methyl-1H-pyrazolo [3,4-b]pyridin-5-yl)-8-(morpholin-3-yl)-3,4-dihydroisoquinolin-2(1H)-yl)propan-1-one]",4430 nM
10,Cc1c[nH]c2ncc(-c3cc4c(c([C@@H]5COCCN5)c3)CN(C(=O)c3cnn(C5CC5)c3)CC4)cc12 [Compound Z456],315 nM
11,"Cc1c[nH]c2ncc(-c3cc4c(c([C@@H]5COCCN5)c3)CN(C(=O)N3CC(C)OCC3C)CC4)cc12 (stereo partly drawn) [Compound Z458, (2,5-dimethylmorpholine)(6-(3-methyl-1H-pyrrolo[2,3-b]pyridin-5-yl)-8-((R)-morpholin-3-yl)-3,4-dihydroisoquinolin-2(1H)-yl)methanone]",127 nM
12,"Cc1c[nH]c2ncc(-c3cc4c(c([C@@H]5COCCN5)c3)CN(C(=O)N3CC(C)OC(C)C3)CC4)cc12 (stereo partly drawn) [Compound Z459, (2,6-dimethylmorpholine)(6-(3-methyl-1H-pyrrolo[2,3-b]pyridin-5-yl)-8-((R)-morpholin-3-yl)-3,4-dihydroisoquinolin-2(1H)-yl)methanone]",171 nM
13,"Cc1c[nH]c2ncc(-c3cc4c(c([C@@H]5COCCN5)c3)CN(C(=O)N3C(C)COCC3C)CC4)cc12 (stereo partly drawn) [Compound Z460, (3,5-dimethylmorpholine)(6-(methyl-methyl-1H-pyrrolo[2,3-b]pyridin-5-yl)-8-((R)-morpholin-3-yl)-3,4-dihydroisoquinolin-2(1H)-yl)methanone]",177 nM
14,"COC1CN(C(=O)N2CCc3cc(-c4cnc5[nH]cc(C)c5c4)cc([C@@H]4COCCN4)c3C2)C(C)(C)C1 (stereo partly drawn) [Compound Z461, (4-methoxy-2,2-dimethylpyrrolidin-1-yl)(6-(3-methyl-1H-pyrrolo[2,3-b]pyridin-5-yl)-8-((R)-morpholin-3-yl)-3,4-dihydroisoquinolin-2(1H)-yl)methanone]",195 nM
15,Cc1c[nH]c2ncc(-c3cc4c(c([C@@H]5COCCN5)c3)CN(C(=O)N3CC5CCC(C3)N5C)CC4)cc12 [Compound Z462],255 nM
16,Cc1c[nH]c2ncc(-c3cc4c(c([C@@H]5COCCN5)c3)CN(C(=O)N3C[C@@H]5C[C@H]3CO5)CC4)cc12 [Compound Z463],293 nM
17,"CCc1c(F)[nH]c2ncc(-c3cc4c(c([C@@H]5COCCN5)c3)CN(C(=O)C(C)(C)O)CC4)cc12 [Compound Z464, (R)-3-(6-(3-ethyl-2-fluoro-1H-pyrrolo[2,3-b]pyridin-5-yl)-2-(2-hydroxy-2-methylpropanoyl)-1,2,3,4-tetrahydroisoquinolin-8-yl)morpholine]",193 nM

row,Compound,IC50
1,"CC(C)(O)C(=O)N1CCc2cc(-c3cnc4[nH]cc(Cl)c4n3)cc([C@@H]3COCCN3)c2C1 [Compound Z465, (R)-3-(6-(7-chloro-5H-pyrrolo[2,3-b]pyrazin-2-yl)-2-(2-hydroxy-2-methylpropanoyl)-1,2,3,4-tetrahydroisoquinolin-8-yl)morpholine]",144 nM
2,"COCC(=O)N1CCc2cc(-c3cnc4[nH]cc(Cl)c4c3)cc([C@@H]3COCCN3)c2C1 [Compound Z466, (R)-1-[6-(3-chloro-1H-pyrrolo[2,3-b]pyridin-5-yl)-8-morpholin-3-yl-3,4-dihydroisoquinolin-2(1H)-yl]-2-methoxyethan-1-one]",306 nM
3,"Cc1c[nH]c2ncc(-c3cc4c(c([C@@H]5COCCN5)c3)CN(S(=O)(=O)C3CC3)CC4)cc12 [Compound Z467, (R)-3-[2-cyclopropylsulfonyl-6-(3-methyl-1H-pyrrolo[2,3-b]pyridin-5-yl)-1,2,3,4-tetrahydroisoquinolin-8-yl]morpholine]",385 nM
4,"Cc1ncc(C(=O)N2CCc3cc(-c4cnc5[nH]cc(C)c5c4)cc([C@@H]4COCCN4)c3C2)cn1 [Compound Z468, (R)-(2-methylpyrimidin-5-yl)-[6-(3-methyl-1H-pyrrolo[2,3-b]pyridin-5-yl)-8-[morpholin-3-yl]-3,4-dihydroisoquinolin-2(1H)-yl]methanone]",340 nM
5,CN1C2CCC1CN(C(=O)N1CCc3cc(-c4cnc5[nH]cc(Cl)c5c4)cc([C@@H]4COCCN4)c3C1)C2 [Compound Z470],127 nM
6,"Cc1c[nH]c2ncc(-c3cc4c(c([C@@H]5COCCN5)c3)CN(C(=O)N3C5CCC3CN(C)C5)CC4)cc12 [Compound Z471, (6-(3-methyl-1H-pyrrolo[2,3-b]pyridin-5-yl)-8-((R)-morpholin-3-yl)-3,4-dihydroisoquinolin-2(1H)-yl)(3-methyl-3,8-diazabicyclo[3.2.1]octan-8-yl)methanone]",180 nM
7,CN1CC2CCC(C1)N2C(=O)N1CCc2cc(-c3cnc4[nH]cc(Cl)c4c3)cc([C@@H]3COCCN3)c2C1 [Compound Z472],216 nM
8,O=C(N1CCc2cc(-c3cnc4[nH]cc(F)c4c3)cc([C@@H]3COCCN3)c2C1)N1CC2CCC(C1)O2 [Compound Z475],117 nM
9,Cc1c[nH]c2ncc(-c3cc4c(c([C@@H]5COCCN5)c3)CN(C(=O)c3cnn(C(C)C)c3)CC4)cc12 [Compound Z477],422 nM
10,CO[C@@H]1CCN(C(=O)N2CCc3cc(-c4cnc5[nH]cc(C)c5c4)cc([C@@H]4COCCN4)c3C2)C1 [Compound Z478],329 nM
11,"Cc1c[nH]c2ncc(-c3cc4c(c([C@@H]5COCCN5)c3)CN(C(=O)N3CCOCC3(C)C)CC4)cc12 [Compound Z479, (R)-(3,3-dimethylmorpholine)(6-(3-methyl-1H-pyrrolo[2,3-b]pyridin-5-yl)-8-(morpholin-3-yl)-3,4-dihydroisoquinolin-2(1H)-yl)methanone]",147 nM
12,"Cc1c[nH]c2ncc(-c3cc4c(c([C@@H]5COCCN5)c3)CN(C(=O)N3CCOC[C@H]3C)CC4)cc12 [Compound Z480, (6-(3-methyl-1H-pyrrolo[2,3-b]pyridin-5-yl)-8-((R)-morpholin-3-yl)-3,4-dihydroisoquinolin-2(1H)-yl)((R)-3-methylmorpholino)methanone]",118 nM
13,"Cc1c(Cl)[nH]c2ncc(-c3cc4c(c([C@@H]5COCCN5)c3)CN(C(=O)C(C)(C)O)CC4)cc12 [Compound Z481, (R)-1-(6-(2-chloro-3-methyl-1H-pyrrolo[2,3-b]pyridin-5-yl)-8-(morpholin-3-yl)-3,4-tetrahydroisoquinolin-2(1H)-yl)-2-hydroxy-2-methylpropan-1-one]",443 nM
14,"Cc1c[nH]c2ncc(-c3cc4c(c([C@@H]5COCCN5)c3)CN(C(=O)N3CCN(C)CC3)CC4)cc12 [Compound Z482, (R)-(6-(3-methyl-1H-pyrrolo[2,3-b]pyridin-5-yl)-8-(morpholin-3-yl)-3,4-dihydroisoquinolin-2(1H)-yl)(4-methylpiperazin-1-yl)methanone]",311 nM
15,"O=C(N1CCOCC1)N1CCc2cc(-c3cnc4[nH]cc(Cl)c4c3)cc([C@@H]3COCCN3)c2C1 [Compound Z483, (R)-(6-(3-chloro-1H-pyrrolo[2,3-b]pyridin-5-yl)-8-(morpholin-3-yl)-3,4-dihydroisoquinolin-2(1H)-yl)(morpholine)methanone]",112 nM
16,"Cc1c[nH]c2ncc(-c3cc4c(c([C@@H]5COCCN5)c3)CN(C(=O)N3CCO[C@H](C)C3)CC4)cc12 [Compound Z484, (6-(3-methyl-1H-pyrrolo[2,3-b]pyridin-5-yl)-8-((R)-morpholin-3-yl)-3,4-dihydroisoquinolin-2(1H)-yl)((R)-2-methylmorpholino)methanone]",364 nM
17,"O=C(N1CCc2cc(-c3cnc4[nH]cc(Cl)c4c3)cc([C@@H]3COCCN3)c2C1)C1(O)CCOCC1 [Compound Z485, (R)-(6-(3-chloro-1H-pyrrolo[2,3-b]pyridin-5-yl)-8-(morpholin-3-yl)-3,4-dihydroisoquinolin-2(1H)-yl)(4-hydroxytetrahydro-2H-pyran-4-yl)methanone]",126 nM
